Columns and labels:
FaDu cells = test: comet assay for DNA damage in FaDu cells; type: cell-based, human; details: 1 μM BrdU with 1 Gy of 14 keV NR, versus BrdU-RS2000 or RS2000
Protocol: Referring to FIGS. 22A and 22B, comet assays for evaluating DNA damages induced by BrdU, RS2000, BrdU with RS2000, NR, and NR with BrdU are provided in accordance with an exemplary embodiment of the present disclosure. Comet assays are commonly used to measure DNA single-strand breaks […] and double-strand breaks (DSBs). FaDu cells (10^4 cells/10 μl of PBS) are mixed with 75 μl of 0.75% low-melting agarose. The mixture is then immediately embedded onto a glass slide pre-coated with 2 layers of 1% agarose, and spread evenly with a coverslip. The mixture on the glass slide is solidified on ice for 5 minutes. 2 additional layers of 1% agarose are then coated on the cell layer. The cell is then soaked with cell lysis buffer (10 mM Tris, 2.5 M NaCl, 100 mM Na2-EDTA, and 1% Triton X-100, pH 10.0) at 4° C. for 1 hour. The slide is then placed horizontally in an electrophoretic apparatus with alkaline electrophoretic buffer ([…] and 1 mM Na2-EDTA, pH >12.0) for 60 minutes, and then electrophoresis is conducted in the apparatus for 30 minutes at 25 V and 300 mA. After the electrophoresis has ended, the slide is soaked with neutralization buffer (0.4 M Tris, pH 7.4) for 10 minutes. The cells on the slide are stained with propidium iodide (PI) of 20 μg/ml and subjected to microscopic examination. […] FIG. 22B is a quantified result of FIG. 22A. […]

γH2AX = test: p-γH2AX immunofluorescent staining of FaDu cells; type: cell-based, human; details: 1 μM BrdU with 1 Gy of 14 keV NR
Protocol: Referring to FIGS. 23A and 23B, p-γH2AX immunofluorescent staining for evaluating DNA damages induced by BrdU, RS2000, BrdU with RS2000, NR, and NR with BrdU, are provided in accordance with exemplary embodiments of the present disclosure. γH2AX is the histone H2AX protein with phosphorylated amino acid on serine 139. γH2AX is a specific marker for DNA DSBs. FaDu cells are seeded on a chamber slides, and are fixed with −20° C., 100% ethanol under room temperature for 15 minutes. The fixed chamber slides are washed with PBS, and permeablized with 0.1% Triton X-100 for 10 minutes. Then, the chamber slides are blocked with 5% milk in PBS for 30 minutes at room temperature, and incubated with primary antibody (anti-γH2AX) overnight at 4° C. FaDu cells in the chamber slides are then washed with PBS, and incubated with secondary antibody which is conjugated by a fluorescent dye for 1 hour at room temperature. The nuclei were countestained with 5 μg/ml of DAPI (4′,6-diamidino-2-phenylindole). The stained FaDu cells are then being mounted and subjected to microscopic examination with a confocal laser scanning microscope (ZEISS LSM780). The number of p-γH2AX are quantified using Metamorph software. […] FIG. 23B is a quantitative result of FIG. 23A. […]

O=c1[nH]c(=O)n([C@H]2C[C@H](O)[C@@H](CO)O2)cc1Br [BrdU, bromodeoxyuridine]
relative DNA tail movement (comet assay) (FaDu cells): largest relative DNA tail movements
γH2AX expression (immunofluorescent staining) (γH2AX): significant amount of γH2AX expression
